Experiment [1] deals with C2C12 cells. The experiment can be described thus: Effect of alverine derivatives on promoting myoblast differentiation. It counts as cell-based, mouse. The following applies: 1 μM, 4 days; compared with DMSO alone. As for the experimental part:
C2C12 (American Type Culture Collection, CRL-1772™) cells are a myoblast cell line obtained from C3H mouse and is used in myoblast differentiation research. The C2C12 cells were cultured using growth media, and then cultured using differentiation media for differentiation induction. Here, DMEM supplemented with 10% fetal bovine serum was used as growth media (GM), and DMEM supplemented with 5% horse serum (HS) was used as differentiation media (DM).
In order to confirm the effect of an alverine derivative on promoting the differentiation of myoblasts, C2C12 cells were dispensed in the GM of Example 1.1 and cultured for 24 hours. Then, the C2C12 cells were treated with DMSO (Sigma-Aldrich), insulin, alverine (Sigma-Aldrich), or 27 types of alverine derivatives, each at a concentration of 1 μM and were induced for differentiation over 4 days. […]
After washing three times with phosphate buffer (1× PBS), PBST (blocking buffer, PBS containing 0.5% Tween 20) containing 2% bovine serum albumin was administered and allowed to react for 30 minutes to suppress nonspecific binding of antibodies. […] Thereafter, after washing with phosphate buffer (1× PBS) three times, the washed cover glass was measured for absorbance at a wavelength of 450 nm and a fluorescent image was taken using a fluorescence microscope.

The next experiment relates to sarcopenia-induced mice. The experiment can be described thus: Running ability test, sarcopenia-induced mouse. The settings on record: hindlimb-immobilized mice; oral 150 mg/kg/day (AC-H); compared with normal mouse. It counts as in vivo. As for the experimental part: Running ability was measured using a treadmill designed specific for this experiment. First, aversive stimuli were provided by letting electric stimuli flow at the starting point. Before the measurement, the mice were acclimatized at 8 m/min for 10 minutes. The running time was recorded by allowing mice in each group to run in separate lanes until exhaustion. Exhaustion was defined such that when the mouse stays outside the lanes for 10 seconds or more without running, the mouse was determined to be exhausted and the time was recorded. It was not possible to repeat this experiment on the same mouse. The mouse was placed on the treadmill and the test was started at 8 rpm, and the speed was accelerated by 2 rpm every 10 minutes to a maximum speed of 20 rpm. The slope of the lane started from a zero-degree incline and then was elevated to a five-degree incline after 30 min from the start. In order to confirm a muscle strength enhancement effect of alverine citrate, sarcopenia-induced mice were administered with alverine citrate and tested for running ability. After the treadmill running test, muscle weight was measured. In particular, the hindlimb of 10 week-old C57BL/6 male mice was immobilized using a surgical stapler (Autosuture Royal 35W stapler). […] After that, running ability was measured. […] Running ability was measured by the same method as in Example 2.2.

Experiment [2] has as its system C2C12 cells. Description: Promotion of differentiation of myoblasts (MyHC fluorescent staining). It counts as cell-based, mouse. As for the experimental part:
C2C12 (American Type Culture Collection, CRL-1772™) cells are a myoblast cell line obtained from C3H mouse and is used in myoblast differentiation research. The C2C12 cells were cultured using growth media, and then cultured using differentiation media for differentiation induction. Here, DMEM supplemented with 10% fetal bovine serum was used as growth media (GM), and DMEM supplemented with 5% horse serum (HS) was used as differentiation media (DM). In order to confirm the effect of alverine citrate on promoting the differentiation of myoblasts, C2C12 cells were dispensed in the GM of Example 1.1 and cultured for 24 hours, and then the C2C12 cells were treated with DMSO, insulin, or alverine citrate, and induced for differentiation over 3 days. […] Here, the DMSO, insulin and alverine citrate used in the experiment were all purchased from Sigma-Aldrich. The group treated with insulin was used as the positive control group. In particular, C2C12 cells were dispensed in a 6-well plate treated with the GM of Example 1.1 at a concentration of 5×10^5 cells per plate and after 24 hours, were replaced with DMEM media supplemented with 5% HS and induced for differentiation. Thereafter, the cells were treated with DMSO, insulin (1.72 μM) or alverine citrate (0.01 μM, 0.1 μM, 1 μM or 10 μM). After 3 days, after removing the media, the cells were washed with phosphate buffer solution (1× PBS) and treated with paraformaldehyde (4%) and fixed at room temperature for 15 minutes. Then, after washing three times with phosphate buffer solution (1× PBS), PBS containing 0.3% triton X-100 was treated with permeabilization buffer and allowed to react at room temperature for 10 minutes. After washing three times with phosphate buffer solution (1× PBS), PBST (blocking buffer, PBS containing 0.5% Tween 20) containing 2% bovine serum albumin was administered and allowed to react for 30 minutes to suppress nonspecific binding of antibodies. After washing with phosphate buffer (1× PBS) three times, 100 μL of primary antibodies (SC-20641, Santa Cruz Biotechnology) to MYH3 diluted to 1:500 were added and allowed to react at room temperature for 1 hour. Thereafter, after washing with phosphate buffer (1× PBS) three times, 100 μL of secondary antibodies (Goat anti-Rabbit IgG-HRP) diluted to 1:5,000 were added and allowed to react at room temperature for 1 hour. After 1 hour, for nuclear staining, after washing with phosphate buffer (1× PBS) three times, the blocking buffer was treated with diluted DAPI dye and allowed to react at room temperature for 10 minutes. Thereafter, after washing with phosphate buffer (1× PBS) three times, the washed cover glass was measured for absorbance at a wavelength of 450 nm and a fluorescent image was taken using a fluorescence microscope. The anti-MyHC antibody stained area was analyzed using imageJ (Java-based image processing program). To confirm the effect of 4-hydroxy alverine on promoting myoblast differentiation, following the same method as Example 1, DMSO, insulin (1.72 μM), alverine citrate (0.01 μM, 0.1 μM, 1 μM or 10 μM), 4-hydroxy alverine (0.01 μM, 0.1 μM, 1 μM or 10 μM) were each administered, and differentiation to myotubes and changes in myotube thickness and diameter were observed.

In experiment [3] the test system is C2C12 cells. The experiment can be described thus: Myotube atrophy induced by C26 cancer cell conditioned medium (cachexia model). It counts as cell-based, mouse. The settings on record: 1 μM; differentiation media with 33% CM, 3 days. As for the experimental part: In order to confirm a cachexia treatment effect of alverine citrate and 4-hydroxy alverine, an experiment mimicking a tumor-growth environment by treatment of a cancer cell conditioned medium (CM) was conducted as an ex vivo approach. First, cancer cell CM was prepared using a C26 cancer cell line. Here, as cancel cell growth media (GM), RPMI1640 media supplemented with 10% fetal bovine serum was used. The C26 cancer cell line was cultured using a 100 mm cell culture plate and the cancer cell GM. Here, the media were removed when cell confluency reached 90%. Then, after washing with phosphate buffer (1× buffer), the prepared differentiation media were treated following the same process as in Example 1. After 24 hours, a C26 cancer cell line CM was obtained and filtered using bottle top filters (Thermo, PES, 1 L) before use.
C2C12 cells were dispensed in a 6-well plate treated with the GM of Example 1.1 at a concentration of 5×10^5 cells per plate and after 24 hours, were replaced with DMEM media supplemented with 5% HS and induced for differentiation. […] Here, by treating the experimental groups with 1 μM alverine citrate (AC) and 4-hydroxy alverine (4HA), the effect of suppressing myotube atrophy was evaluated. […] Following the same method as in Example 1.2, by florescent staining using antibodies against MyHC, the expression amount of MyHC was measured.

For `CCN(CCCc1ccccc1)CCCc1ccccc1` [Alverine, N-ethyl-3-phenyl-N-(3-phenylpropyl)propan-1-amine], the “differentiation of myoblasts to myotubes” value with C2C12 cells [1] was “promoted the differentiation to myotubes”. Moreover, in the experiment with sarcopenia-induced mice, the running time entry is “increased compared to the normal mouse”.
In the case of “insulin: positive control group, purchased from Sigma-Aldrich”, in the experiment on C2C12 cells [2] (compared with DMSO alone, 3 days, insulin 1.72 μM, alverine citrate 0.01-10 μM), the “differentiation of myoblasts to myotubes” value is “more differentiated to myotubes”.
In the case of `CCN(CCCc1ccccc1)CCCc1ccc(O)cc1` [4-hydroxy alverine, 4-[3-[ethyl(3-phenylpropyl)amino]propyl]phenol], in the experiment on C2C12 cells [2] (compared with DMSO or insulin (1.72 μM), 0.01-10 μM), the “differentiation of myoblasts to myotubes” value was “more differentiated to myotubes”. Moreover, in the experiment on C2C12 cells [2] (compared with alverine at the same concentration), the differentiation promoting effect result is listed as “superior differentiation promoting effect than alverine”. Further, in the experiment with C2C12 cells [3], the myotube atrophy result was “myotube atrophy was suppressed”.

For the origin of these results see patent US20230149326A1, “PHARMACEUTICAL COMPOSITION FOR PREVENTING OR TREATING MUSCULAR WEAKNESS-RELATED DISEASES COMPRISING ALVERINE, 4-HYDROXY ALVERINE, DERIVATIVE THEREOF, OR PHARMACEUTICALLY ACCEPTABLE SALT THEREOF” (AVENTI INC., priority 2020, published 2023).
